In ChEMBL document CHEMBL1201862, “PubChem BioAssay data set” (2004):
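Grown in 96-well plates, cells were treated for 48 hours with each compound at five concentrations. Insufficient inhibition: endpoint recorded as highest concentration tested. Here, GI50 denotes the concentration required for 50% inhibition of growth.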 Calls of active or inactive are those of the source. No stated cut-off is given here; in the data, active = GI50 up to about 1.1 µM and inactive = higher.

Legend:
Assay in all cases: NCI anticancer screen, dose series, 48 h
U-251 = tested on: U-251
NCI-H522 = tested on: NCI-H522
OVCAR-3 = tested on: OVCAR-3
SK-MEL-5 = tested on: SK-MEL-5
MDA-N = tested on: MDA-N
UACC-257 = tested on: UACC-257
LOX IMVI = tested on: LOX IMVI
HOP-92 = tested on: HOP-92
IGROV-1 = tested on: IGROV-1
DU-145 = tested on: DU-145
M14 = tested on: M14
786-0 = tested on: 786-0
SK-MEL-28 = tested on: SK-MEL-28
NCI-H23 = tested on: NCI-H23
SW-620 = tested on: SW-620
SK-OV-3 = tested on: SK-OV-3
K562 = tested on: K562
PC-3 = tested on: PC-3
RXF 393 = tested on: RXF 393
TK-10 = tested on: TK-10

Row | Compound | GI50 (U-251) | GI50 (NCI-H522) | GI50 (OVCAR-3) | GI50 (SK-MEL-5) | GI50 (MDA-N) | GI50 (UACC-257) | GI50 (LOX IMVI) | GI50 (HOP-92) | GI50 (IGROV-1) | GI50 (DU-145) | GI50 (M14) | GI50 (786-0) | GI50 (SK-MEL-28) | GI50 (NCI-H23) | GI50 (SW-620) | GI50 (SK-OV-3) | GI50 (K562) | GI50 (PC-3) | GI50 (RXF 393) | GI50 (TK-10)
1 | CC1OC(OC2C(CO)OC(O[C@H]3CC[C@@]4(C)C(=CC[C@H]5[C@@H]6C[C@@H]7O[C@](O)(CC[C@H](C)COC8OC(CO)C(O)C(O)C8O)[C@@H](C)[C@@H]7[C@@]6(C)CC[C@@H]54)C3)C(OC3OC(C)C(O)C(O)C3O)C2O)C(O)C(O)C1O (stereo not given in full) | 3.15 µM (inactive) | 2.88 µM (inactive) | 8.2 µM (inactive) | 7.1 µM (inactive) | 3.4 µM (inactive) | 6.64 µM (inactive) | 2.17 µM (inactive) | 3.56 µM (inactive) | 5.75 µM (inactive) | 2.35 µM (inactive) | 3.05 µM (inactive) | 2.52 µM (inactive) | 2.94 µM (inactive) | 4.29 µM (inactive) | 0.644 µM (active) | 2.91 µM (inactive) | 2.8 µM (inactive) | 4.48 µM (inactive) | 5.11 µM (inactive) | > 73.3 µM (inactive)
2 | O=C(NCCCCl)c1c(O)c2ccccc2[nH]c1=O | > 100 µM (inactive) | > 65.5 µM (inactive) | > 100 µM (inactive) | > 100 µM (inactive) | > 100 µM (inactive) | > 100 µM (inactive) | > 100 µM (inactive) | > 43.3 µM (inactive) | > 100 µM (inactive) | > 100 µM (inactive) | > 100 µM (inactive) | > 61 µM (inactive) | > 100 µM (inactive) | > 87.3 µM (inactive) | > 100 µM (inactive) | > 80.5 µM (inactive) | > 100 µM (inactive) | > 100 µM (inactive) | > 41.3 µM (inactive) | > 100 µM (inactive)
3 | O=C(O)c1cc2ccccc2c(O)c1O | 16.8 µM (inactive) | 15.1 µM (inactive) | 13.5 µM (inactive) | 2.92 µM (inactive) | 2.14 µM (inactive) | 9.68 µM (inactive) | 3.52 µM (inactive) | > 40.1 µM (inactive) | 20.2 µM (inactive) | 18.3 µM (inactive) | 4.79 µM (inactive) | 14.3 µM (inactive) | 7.03 µM (inactive) | 7.29 µM (inactive) | 19.7 µM (inactive) | 14.8 µM (inactive) | 8.09 µM (inactive) | 12.8 µM (inactive) | 17.3 µM (inactive) | 21.9 µM (inactive)
4 | Nc1[nH]c(=S)[nH]c(=O)c1/N=N/c1c(Br)cc(S(N)(=O)=O)cc1Br | > 100 µM (inactive) | > 100 µM (inactive) | > 100 µM (inactive) | > 100 µM (inactive) | > 100 µM (inactive) | > 100 µM (inactive) | > 100 µM (inactive) | > 100 µM (inactive) | > 100 µM (inactive) | > 100 µM (inactive) | > 100 µM (inactive) | > 100 µM (inactive) | > 100 µM (inactive) | > 100 µM (inactive) | > 100 µM (inactive) | > 100 µM (inactive) | > 100 µM (inactive) | > 100 µM (inactive) | > 100 µM (inactive) | > 100 µM (inactive)
5 | C[C@]12CC[C@H]3[C@@H](CC=C4C[C@@H](O)CC[C@@]43C)[C@@H]1CC[C@@H]2N(CCO)CCO | 59.8 µM (inactive) | 20.4 µM (inactive) | 34.8 µM (inactive) | 63.5 µM (inactive) | 45.9 µM (inactive) | 52.6 µM (inactive) | 40.7 µM (inactive) | 64 µM (inactive) | 50.7 µM (inactive) | 36.6 µM (inactive) | 48.4 µM (inactive) | 19.7 µM (inactive) | 96.2 µM (inactive) | > 100 µM (inactive) | 41.3 µM (inactive) | 23.3 µM (inactive) | 71.9 µM (inactive) | 50.9 µM (inactive) | 36.1 µM (inactive) | 42.3 µM (inactive)
